The values that follow come from US20090298800A1, “1,25-DIHYDROXY, 20-CYCLOPROPYL,26-27-DEUTEROALKYL VITAMIN D3 COMPOUNDS AND METHODS OF USE THEREOF” (BioXell S.p.A., priority 2005, published 2009).

As usually defined, the MTD is the highest dose tested that stayed within the study's limit of toxicity.

The nature of data set [1]: Determination of Maximum Tolerated Dose (MTD) in mice (serum calcium). To be noted: mouse, po; female C57BL/6 mice, p.o. daily for four days; highest dose without hypercalcemia (serum calcium>10.7 mg/dl). In kind it is in vivo. How it is done:
The maximum tolerated dose of the vitamin D3 compounds of the invention were determined in eight week-old female C57BL/6 mice (3 mice/group) dosed orally (0.1 ml/mouse) with various concentrations of Vitamin D3 analogs daily for four days. Analogs were formulated in miglyol for a final concentration of 0.01, 0.03, 0.1, 0.3, 1, 3, 10, 30, 100 and 300 μg/kg when given at 0.1 ml/mouse p.o. daily. Blood for serum calcium assay was drawn by tail bleed on day five, the final day of the study. Serum calcium levels were determined using a colorimetric assay (Sigma Diagnostics, procedure no. 597). The highest dose of analog tolerated without inducing hypercalcemia (serum calcium>10.7 mg/dl) was taken as the maximum tolerated dose (MTD).

The test system of data set [2] is IFN-γ production. The data set can be described thus: IFN-γ production in the mixed leukocyte response (MLR) of allogeneic PBMC. Format: cell-based. To be noted: 120 h, 5 days, ELISA, read-out: INF-γ IC50. How it is done:
Immature dendritic cells (DC) were prepared as described in Romani, N. et al. (Romani, N. et al. (1996) J. Immunol. Methyl. 196:137). IFN-γ production by allogeneic T cell activation in the mixed leukocyte response (MLR) was determined as described in Penna, G., et al., J Immunol., 164: 2405-2411 (2000).
Briefly, peripheral blood mononuclear cells (PBMC) were separated from buffy coats by Ficoll gradient and the same number (3×10^5) of allogeneic PBMC from 2 different donors were co-cultured in 96-well flat-bottom plates. The vitamin D3 compounds were added to each of the cultures. After 5 days, IFN-γ production in the MLR assay was measured by ELISA and the results expressed as amount (nM) of test compound required to induce 50% inhibition of IFN-γ production (IC50).

Data set [3] deals with RT112. The data set can be described thus: Proliferation assay, bladder cancer cell line RT112. Format: cell-based, human. The note with it: 72 h culture, CyQuant proliferation assay. The protocol:
(§1) Bladder cancer cell lines (T24, RT112, HT1376 and RT4 are human bladder cancer cell lines; NHEK are normal human keratinocytes) were obtained from the European Collection of Cell Cultures (Salisbury, UK). Cells were plated at 3×10^3 per well, in flat bottomed 96-well plates in 100 μl of DMEM medium containing: 5% Fetal Clone i, […] gentamicin, 1 mM sodium pyruvate and 1% non-essential amino acids. After culturing for 24 h at 37° C. in 5% CO2, to allow cells to adhere to the plates, VDR ligands (compounds (1)-(9)) were added at concentrations ranging from 100 μM to 0.3 μM in 100 μl of above-mentioned complete medium. After a further 72 h of culture, cell proliferation was measured using a fluorescence-based proliferation assay kit. (CyQuant Cell Proliferation Assay Kit, Molecular Probes, Eugene, Oreg., USA). The IC50 was calculated from the regression curve of the titration data.

Data set [4] concerns RT4. The data set can be described thus: Proliferation assay, bladder cancer cell line RT4. Format: cell-based, human. To be noted: 72 h culture, CyQuant proliferation assay. How it is done:
as §1

Data set [5] relates to NHEK. The data set can be described thus: Proliferation assay, normal human keratinocytes NHEK. Format: cell-based. To be noted: 72 h culture, CyQuant proliferation assay. How it is done:
as §1

Data set [6] relates to Renin mRNA. Put plainly: Renin mRNA inhibition in murine juxtaglomerular cell line As4.1. In kind it is cell-based. To be noted: Mus musculus, As4.1 cells treated 24 h at 10^−8, 10^−9 and 10^−10 M, real time PCR normalized to β-actin, read-out: Renin mRNA inh.As4.1/wt. How it is done: As4.1 cells (80% subconfluent) were treated in complete medium with compounds of the invention at 10^−8,10^−9 and 10^−10 M for 24 h. Total RNA was extracted using RNeasy Mini kit (Qiagen); treated with DNase I (Qiagen) and Reverse Transcription Reagent (Applied Biosystems) with Random Examers were used for reverse transcription according to the manufacturers' instructions. Real Time PCR analysis was performed in multiplex using commercially available β-actin VIC-conjugated probe (cat. n. 4352341E, Applied Biosystems) and custom designed mRENIN FAM-conjugated probe (Assay by Design, Applied Biosystems; Forward: […]; Reverse: […]; Probe: FAM-[…]-MGB). Reactions were performed in a 25 μL volume containing 12.5 μl […] (Applied Biosystems), 10 ng/reaction/well cDNA, and 2.5 μM each gene-specific primer. An ABI PRISM 7700 analyzer (Applied Biosystems) was used at 50° C. for 2 minutes and 95° C. for 10 minutes, followed by 40 cycles at 95° C. for 15 seconds and 60° C. for 1 minute. Cycle threshold (Ct) values were exported onto Excel worksheets for analysis. Test cDNA results were normalized versus mouse β-actin housekeeping gene. Fold differences in gene expression between the subtracted versus the unsubtracted populations were expressed using the method of 2^−ΔΔCt. (Table 4)

Data set [7] relates to HT 1376. Put plainly: Proliferation assay, bladder cancer cell line HT1376. In kind it is cell-based. The note with it: Homo sapiens, 72 h culture, CyQuant proliferation assay. The protocol:
as §1

As for `[2H]C([2H])([2H])C(O)(CCCC1([C@H]2CCC3/C(=C/C=C4/C[C@@H](OC(C)=O)C[C@H](F)C4=C)CCC[C@@]32C)CC1)C([2H])([2H])[2H]` (stereo partly drawn) [Compound 6, 3-O-acetyl-1α-fluoro-25-hydroxy-20-cyclopropyl-cholecalciferol], the MTD at 4 days in data set [1] was 0.03 mg/kg. For the same molecule, the IC50 in data set [2] turned out to be 0.747 nM; in data set [3] (Homo sapiens, RT-112), 19.7 µM; in data set [4] (Homo sapiens, RT-4), 4.5 µM; in data set [5] it was 5.6 µM; in data set [6] it was 0.00448 µM.
As for `[2H]C([2H])([2H])C(O)(CCCC1(C2=CCC3/C(=C/C=C4/CC(O)C[C@H](O)C4)CCC[C@]23C)CC1)C([2H])([2H])[2H]` (stereo partly drawn) [Compound 7, 1,25-Dihydroxy-16-ene-20 cyclopropyl-26,27-hexadeutero-19-nor-cholecalciferol], in data set [1], the MTD at 4 days was 0.001 mg/kg. Moreover, the IC50 in data set [2] was 0.032 nM; in data set [3] (Homo sapiens, RT-112) it was above 30 µM; in data set [4] (Homo sapiens, RT-4) it was 8.9 µM; in data set [5], above 10 µM; in data set [6], 0.00736 µM.
Turning to `[2H]C([2H])([2H])C(O)(CCCC1(C2=CCC3/C(=C/C=C4/CC(O)C[C@H](O)C4=C)CCC[C@]23C)CC1)C([2H])([2H])[2H]` (stereo partly drawn) [Compound 8, 1,25-Dihydroxy-16-ene-20-cyclopropyl-26,27-hexadeutero-cholecalciferol], the MTD at 4 days in data set [1] is 0.01 mg/kg. The IC50 was 0.063 nM in data set [2]; at least 30 µM in data set [3] (Homo sapiens, RT-112); 2.4 µM in data set [4] (Homo sapiens, RT-4); 7 µM in data set [5]; 0.00489 µM in data set [6].
On to `[2H]C([2H])([2H])C(O)(CCCC1(C2=CCC3/C(=C/C=C4/CC(O)C[C@H](F)C4=C)CCC[C@]23C)CC1)C([2H])([2H])[2H]` (stereo partly drawn) [Compound 9, 1α-Fluoro-25-hydroxy-16-ene-20-cyclopropyl-26,27-hexadeutero-cholecalciferol], for which the MTD at 4 days in data set [1] was 0.01 mg/kg. Besides, the IC50 was 0.492 nM in data set [2]; at least 30 µM in data set [3] (Homo sapiens, RT-112); 4.3 µM in data set [4] (Homo sapiens, RT-4); 7 µM in data set [5]; 0.0128 µM in data set [6].
In the case of `[2H]C([2H])([2H])C(O)(CCCC1([C@H]2CCC3/C(=C/C=C4/C[C@@H](OC(C)=O)C[C@H](OC(C)=O)C4=C)CCC[C@@]32C)CC1)C([2H])([2H])[2H]` (stereo partly drawn) [Compound 4, 1,3-Di-O-acetyl-1,25-dihydroxy-20-cyclopropyl-26,27-hexadeutero-cholecalciferol], the MTD at 4 days in data set [1] is 0.03 mg/kg. Besides, the IC50 in data set [2] stood at 0.464 nM; in data set [3] (Homo sapiens, RT-112), 18.7 µM; in data set [4] (Homo sapiens, RT-4) it was 3 µM; in data set [5], 5.6 µM; in data set [6], 0.274 µM.
Take `[2H]C([2H])([2H])C(O)(CCCC1([C@H]2CCC3/C(=C/C=C4/C[C@@H](O)C[C@H](F)C4=C)CCC[C@@]32C)CC1)C([2H])([2H])[2H]` (stereo partly drawn) [Compound 5, 1α-Fluoro-25-hydroxy-20-cyclopropyl-26,27-hexadeutero-cholecalciferol]: the MTD at 4 days in data set [1] is 0.1 mg/kg. The IC50 in data set [2] was above 10 nM; in data set [3] (Homo sapiens, RT-112), 15.7 µM; in data set [4] (Homo sapiens, RT-4) it was 3.1 µM; in data set [5], 4.7 µM.
Turning to `[2H]C([2H])([2H])C(O)(CCCC1([C@H]2CCC3/C(=C/C=C4/C[C@@H](O)C[C@H](O)C4=C)CCC[C@@]32C)CC1)C([2H])([2H])[2H]` (stereo partly drawn) [Compound 3, 1,25-Dihydroxy-20-cyclopropyl-26,27-hexadeutero-cholecalciferol], the MTD at 4 days in data set [1] was 0.03 mg/kg. Further, the IC50 in data set [2] was determined as 0.065 nM; in data set [3] (Homo sapiens, RT-112) it was 19.7 µM; in data set [4] (Homo sapiens, RT-4), 2.9 µM; in data set [5], 6.6 µM; in data set [6], 0.0429 µM.
For the molecule `[2H]C([2H])([2H])C(O)(CCCC1([C@H]2CCC3/C(=C/C=C4C[C@@H](OC(C)=O)C[C@H](OC(C)=O)C4)CCC[C@@]32C)CC1)C([2H])([2H])[2H]` (stereo partly drawn) [Compound 2, 1,3-Di-O-acetyl-1,25-dihydroxy-20-cyclopropyl-26,27-hexadeutero-19-nor-cholecalciferol], the MTD at 4 days in data set [1] is 0.03 mg/kg. For the same molecule, the IC50 worked out at 0.388 nM in data set [2]; 16.3 µM in data set [3] (Homo sapiens, RT-112); 3.1 µM in data set [4] (Homo sapiens, RT-4); 7.2 µM in data set [5]; 0.102 µM in data set [6].
Consider `C=C1/C(=C\C=C2/CCC[C@]3(C)C([C@H](C)CCCC(C)(C)O)CC[C@@H]23)C[C@@H](O)C[C@@H]1O` (stereo partly drawn) [1,25(OH)2D3, 1,25-dihydroxycholecalciferol, reference compound], for which the IC50 stood at 0.0496 nM in data set [2]; 28.7 µM in data set [3]; 19 µM in data set [3] (Homo sapiens, RT-112, 72 h); 50 µM in data set [7]; 26 µM in data set [4]; 45 µM in data set [4] (Homo sapiens, RT-4, 72 h). Besides, the IC50 in data set [5] was found to be 4.5 µM.
For `[2H]C([2H])([2H])C(O)(CCCC1([C@H]2CCC3/C(=C/C=C4C[C@@H](O)C[C@H](O)C4)CCC[C@@]32C)CC1)C([2H])([2H])[2H]` (stereo partly drawn) [Compound 1, 1,25-Dihydroxy-20-cyclopropyl-26,27-hexadeutero-19-nor-cholecalciferol], in data set [1], the MTD at 4 days was 0.03 mg/kg. In addition, the IC50 in data set [2] was 0.051 nM; in data set [3] (Homo sapiens, RT-112) it was above 30 µM; in data set [4] (Homo sapiens, RT-4) it was 11.7 µM; in data set [5], 5.6 µM; in data set [6], 0.155 µM.
